ChEMBL document CHEMBL1177817, “Betulin and ursolic acid synthetic derivatives as inhibitors of Papilloma virus” (Bioorg Med Chem Lett, 2010)
Calls of active or inactive are those of the source. The rule behind the calls is not given here.

Tests used:
Type in all cases: functional, organism-based
Influenza A virus [1] = assay: Antiviral activity against influenza A virus H3N2 assessed as inhibition of viral replication
Influenza A virus [2] = assay: Antiviral activity against influenza A virus H5N1 assessed as inhibition of viral replication
Influenza B virus = assay: Antiviral activity against influenza B virus assessed as inhibition of viral replication
Human alphaherpesvirus 1 = assay: Antiviral activity against HSV1 assessed as inhibition of viral replication
Human alphaherpesvirus 2 = assay: Antiviral activity against HSV2 assessed as inhibition of viral replication
Hepatitis B virus = assay: Antiviral activity against HBV assessed as inhibition of viral DNA replication at 10 uM
Hepatitis C virus = assay: Antiviral activity against HCV assessed as inhibition of viral replication; conditions: Hepacivirus hominis
Influenza A virus [3] = assay: Antiviral activity against influenza A virus H1N1 assessed as inhibition of viral replication

Compound | Activity (Influenza A virus [1]) | Activity (Influenza A virus [2]) | Activity (Influenza B virus) | Activity (Human alphaherpesvirus 1) | Activity (Human alphaherpesvirus 2) | Activity (Hepatitis B virus) | Activity (Hepatitis C virus) | Activity (Influenza A virus [3])
C=C(C)[C@@H]1CC[C@]2(C(=O)O)CC[C@]3(C)[C@H](CC[C@@H]4[C@@]5(C)CC[C@H](OC(=O)c6cccnc6)C(C)(C)[C@@H]5CC[C@]43C)[C@@H]12 | inactive | inactive | inactive | inactive | inactive |  |  | 
C#C[C@@H]1CC[C@]2(CO)CC[C@]3(C)[C@H](CC[C@@H]4[C@@]5(C)CC[C@H](O)C(C)(C)[C@@H]5CC[C@]43C)[C@@H]12 | inactive | inactive | inactive | inactive | inactive | inactive | Active | 
C[C@H]1[C@H](C)CC[C@]2(C(=O)O)CC[C@]3(C)C(=CC[C@@H]4[C@@]5(C)CC/C(=N\OCCC#N)C(C)(C)[C@@H]5CC[C@]43C)[C@H]12 | inactive | inactive | inactive | inactive | inactive |  |  | 
C=C(C)[C@@H]1CC[C@]2(COC(=O)c3cccnc3)CC[C@]3(C)[C@H](CC[C@@H]4[C@@]5(C)CC[C@H](OC(=O)c6cccnc6)C(C)(C)[C@@H]5CC[C@]43C)[C@@H]12 | inactive | inactive | inactive | inactive | inactive |  |  | 
C=C(C)[C@@H]1CC[C@]2(COC(=O)/C=C/c3ccc(OC)cc3)CC[C@]3(C)[C@H](CC[C@@H]4[C@@]5(C)CC[C@H](O)C(C)(C)[C@@H]5CC[C@]43C)[C@@H]12 |  |  |  |  |  |  |  | Active
C=C(C)[C@@H]1CC[C@]2(COCCCNCCC#N)CC[C@]3(C)[C@H](CC[C@@H]4[C@@]5(C)CC[C@H](OC(=O)c6cccnc6)C(C)(C)[C@@H]5CC[C@]43C)[C@@H]12 | inactive | inactive | inactive | inactive | inactive |  |  | 
